Source: patent US20080234202A1, “Non-natural amino acids and neurotensin analogues” (priority 2004, published 2008)
Where a name gives a salt, the structure may show the parent alone. Read-outs that look alike come from different tables or passages of the source. Marks after values point to notes of the source that are not given here. Where a SMILES comes first, the peptide text is derived from it. [ ]: non-standard residue; d: D form. The star is where a group is joined. X4 = [N-]=[N+]=N[C@@H](CCCCCN)C(=O)*; X2 = C[C@@H](CCC[N+](C)(C)C)C(=O)*; Tle = CC(C)(C)[C@H](N)C(=O)O; X1 = C[C@@H](CCCCCN)C(=O)*

Legend:
NTR-2 [1] = molecular target: NTR-2 (Rattus norvegicus, UniProt Q63384); details: for Tmax (I.P.) of %MPE / MPE (I.P.): IP at 10 mg/kg; for asterisk at peptide name: significant activity in the hotplate assay: Table 13; for MPE (I.P.): hotplate 52 C, cutoff 30 sec; for MPE (oral) / Tmax (Oral) of %MPE: orally at 20 mg/kg
Chain of NTR-2 (Rattus norvegicus, UniProt Q63384) (Q63384 whole entry): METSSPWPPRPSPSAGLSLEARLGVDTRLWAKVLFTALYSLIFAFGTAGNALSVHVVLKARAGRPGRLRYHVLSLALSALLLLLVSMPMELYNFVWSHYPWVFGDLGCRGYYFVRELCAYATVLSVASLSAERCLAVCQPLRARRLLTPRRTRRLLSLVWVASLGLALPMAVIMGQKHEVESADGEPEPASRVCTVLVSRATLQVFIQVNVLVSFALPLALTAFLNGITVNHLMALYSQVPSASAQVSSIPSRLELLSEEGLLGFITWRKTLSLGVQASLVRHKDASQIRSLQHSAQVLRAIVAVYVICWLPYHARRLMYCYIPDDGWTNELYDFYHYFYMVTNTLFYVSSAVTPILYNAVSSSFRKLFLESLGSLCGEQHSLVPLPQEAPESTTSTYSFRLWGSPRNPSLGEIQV
Method: Animals. […] (230-260 g) or Harlan, Prattville Ala.
The Hotplate Assay. The hotplate assay, a standard rat model for […] pain (see Le Bars et al., Pharmacol. Rev. 53: 597-652 (2001) and Chapman et al., Pain 22:1-31 (2002)), was performed as follows. A hotplate maintained at 52° C. to 53° C. was enclosed on four sides in a plexiglass chamber that extended 6 in. above the plate. Animals were placed on the plate, and the latency between the time a rat was placed on the surface and when it lifts or licks a back paw (indicative of pain sensation) was determined. Animals are removed immediately at the cutoff latency of 30 seconds. Assays are scored as the percent of maximal possible effect (% MPE) defined as 100%, which corresponds to the rats remaining on the hotplate for 30 seconds without responding. Thus, % MPE are calculated using the following equation: % MPE=[(post-drug latency-pre-drug latency)/(cut-off pre-drug latency)]×100%. N=6 or greater for all experiments.
Values for each set of experiments will be submitted to analysis of variance, with dose (vehicle and 5 levels) as the factor. […] An effect will be considered significant if p<0.05.
Tmax indicates the time after dosing in which a maximum response was observed.
Initial screens of all peptides included (1) evaluating their analgesic ability when dosed IP or orally (indicative of NTR-2 agonism) and (2) evaluating their ability to induce hypothermia when IP, a secondary effect of NTR-1 agonist activity.

NTR-1 = NTR-1 (Homo sapiens, UniProt P30989); test: Competitive NTR-1 binding versus radiolabeled NT[8-13]
Chain of NTR-1 (P30989 whole entry, species assumed): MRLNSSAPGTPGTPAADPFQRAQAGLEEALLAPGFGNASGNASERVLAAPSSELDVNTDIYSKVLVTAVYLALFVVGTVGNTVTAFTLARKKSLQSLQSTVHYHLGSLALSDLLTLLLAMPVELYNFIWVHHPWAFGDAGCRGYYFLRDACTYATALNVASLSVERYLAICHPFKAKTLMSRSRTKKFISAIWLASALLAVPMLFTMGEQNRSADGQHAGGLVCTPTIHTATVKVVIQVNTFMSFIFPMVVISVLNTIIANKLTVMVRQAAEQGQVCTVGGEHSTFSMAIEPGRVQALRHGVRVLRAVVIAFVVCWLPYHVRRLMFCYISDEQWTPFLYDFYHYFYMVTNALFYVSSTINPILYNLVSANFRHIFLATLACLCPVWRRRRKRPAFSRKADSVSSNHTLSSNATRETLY

NTR-2 [2] = molecular target: NTR-2 (Homo sapiens, UniProt O95665); test: Competitive NTR-2 binding versus radiolabeled NT[8-13]
Chain of NTR-2 (Homo sapiens, UniProt O95665) (O95665 whole entry, species assumed): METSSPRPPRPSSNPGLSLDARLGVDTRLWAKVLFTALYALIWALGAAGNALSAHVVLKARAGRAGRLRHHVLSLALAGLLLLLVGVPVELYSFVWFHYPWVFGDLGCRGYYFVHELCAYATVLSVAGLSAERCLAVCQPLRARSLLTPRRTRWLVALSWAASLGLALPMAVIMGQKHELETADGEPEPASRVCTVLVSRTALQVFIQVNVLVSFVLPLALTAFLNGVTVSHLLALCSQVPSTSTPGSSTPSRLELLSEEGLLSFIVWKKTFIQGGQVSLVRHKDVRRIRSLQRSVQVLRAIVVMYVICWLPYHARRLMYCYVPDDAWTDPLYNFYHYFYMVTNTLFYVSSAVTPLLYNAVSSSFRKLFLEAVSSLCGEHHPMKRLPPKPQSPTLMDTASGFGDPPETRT

[3] = Acute toxicity, clinical observation and maximum tolerated dose in rats; type: in vivo, rat
Method: During the 2 and 24 hour post-dosing clinical observation periods, measurements of core body temperatures were taken.

[4] = Pharmacokinetics of ABS212 in Sprague-Dawley rats; type: in vivo, rat; details: for Vd: read-out: volume of distribution at terminal phase; for half-life: read-out: half-life (T1/2) (converted); for clearance: read-out: systemic clearance (converted)
Excerpt: These samples were used for the determination of plasma parent drug concentrations by LC/MS/MS for estimating pharmacokinetic parameters and oral bioavailability.

Formalin assay = details: morphine 5 mg/kg, approximately equimolar
Tail flick assay = details: ABS212 10 mg/kg, Morphine 5 mg/kg
[5] = d-Amphetamine induced hyperlocomotion and spontaneous locomotor activity; type: in vivo, rat; details: Table 11
Excerpt: This model operates on the assumption that the direct stimulation of DA receptors within the mesolimbic DA system is responsible for the locomotor response.
Sound- and light-attenuated locomotor cages are used to measure the ability of potential candidates to decrease d-amphetamine-induced hyperactivity.
d-Amphetamine induced hyperlocomotion. Experimentally I male Sprague-Dawley rats were housed as described above. Rats were handled for three days prior to testing to minimize experimenter induced hyperlocomotion on test day. For experiments, sound- and light-attenuated automated photocell beam activity chambers (AccuScan Instruments, Inc., Columbus, Ohio) were used to measure locomotion. Cages were connected to a VersaMax Analyzer (AccuScan) in conjunction with an IBM computer using VersaMax 1.80-0146 software (AccuScan) to record vertical and horizontal activity. Total activity values recorded were the sum of vertical and horizontal activity.
Each animal's activity was measured by how many times per minute the animal “trips” a photobeam in a computer-controlled photocell activity chamber (San Diego Instruments, San Diego, Calif.). […] Doses were assigned so that each was assessed in 12 chambers that were distributed over the apparatus, which controls for variations in lighting, etc. of the different chambers. […]

[6] = rat, in vivo
Method: Cataleptic Analysis. In laboratory tests, catalepsy is characterized by the inability of an animal to correct its position after placement in an unnatural posture. […] To circumvent these potential confounding factors, tests are performed on an animal only once in a quiet, controlled environment.
Catalepsy Assessment. […] Rats were given an IP injection of peptide (5 mg/Kg), saline, or haloperidol (1 mg/kg). After 3 hours, catalepsy was measured using the horizontal bar test. Briefly, the front paws were placed directly on a horizontal bar 5 mm in diameter placed 7.5 cm above the cage floor. The rat was held in this position for 3 sec and then released. The time from release until the paws return to the cage floor was measured and recorded. A cut-off time of 30 sec was observed; this indicated a fully cataleptic animal as cataleptic animals are frozen to the bar. […] Measures were repeated every 30 min for 4 hr. Data are means±SEM (p<0.01).
After 2 h, catalepsy was measured using the horizontal bar test. Data are means±SEM (p<0.01).

in vitro = details: plasma
[7] = Sprague-Dawley, rat, plasma, IV bolus 1 mg/kg
[8] = Sprague-Dawley, rat, plasma, IV bolus 2.5 mg/kg
[9] = Sprague-Dawley, rat, plasma, IV bolus 5 mg/kg
[10] = Sprague-Dawley, rat, plasma, oral 50 mg/kg

Q: With 1-Arg-Pro-Tyr-t-Leu-Leu [ABS202] as the compound, how does the “Tmax (I.P.) of %MPE” value (NTR-2 [1]; 10 mg/kg) read?
A: 30-75

Q: What about the “asterisk at peptide name: significant activity in the hotplate assay” value (NTR-2 [1]) of the same compound?
A: ABS202*

Q: What about the “MPE (I.P.)” value (NTR-2 [1]; 10 mg/kg) of the same compound?
A: 100%

Q: What about the “% MPE” value (NTR-2 [1]; hotplate 52° C., cutoff 30 seconds, Table 10) of the same compound?
A: 100%

Q: And the “% MPE (tmax, min)” value (NTR-2 [1]; hotplate, Table 10)?
A: 45 min

Q: And the “MPE (oral)” value (NTR-2 [1]; hotplate, 20 mg/kg)?
A: 52%

Q: And the “Tmax (Oral) of %MPE” value (NTR-2 [1]; 20 mg/kg)?
A: 45

Q: Which EC50 (NTR-1) does the source give for `CC(C)C[C@H](NC(=O)[C@@H](NC(=O)[C@H](Cc1ccc(O)cc1)NC(=O)[C@@H]1CCCN1C(=O)[C@H](CCCNC(=N)N)NC(=O)[C@H](CCCCCN)N=[N+]=[N-])C(C)(C)C)C(=O)O` [ABS13, N3-L-homolysine-Arg-Pro-Tyr-tertLeu-Leu-COOH] (X4-RPY[Tle]L-OH) here?
A: 5.7 ± 0.37 nM

Q: And the EC50 (NTR-2 [2])?
A: 11.1 ± 0.1 nM

Q: With `CC[C@H](C)[C@H](NC(=O)[C@H](Cc1ccc(O)cc1)NC(=O)[C@@H]1CCCN1C(=O)[C@H](CCCNC(=N)N)NC(=O)[C@H](CCCNC(=N)N)N=[N+]=[N-])C(=O)N[C@@H](CC(C)C)C(=O)O` [ABS15, X-Arg-Pro-Tyr-isoleu-Leu] as the compound, how does the EC50 (NTR-1) read?
A: 0.4 ± 0.1 nM

Q: And the EC50 (NTR-2 [2])?
A: 0.9 ± 0.2 nM

Q: What about the NTR-1/NTR-2 selectivity (NTR-2 [2]; Table 12) of the same compound?
A: 2.5

Q: Which EC50 (NTR-1) does the source give for `CC[C@H](C)[C@H](NC(=O)[C@H](Cc1ccc(O)cc1)NC(=O)[C@@H]1CCCN1C(=O)[C@H](CCCNC(=N)N)NC(=O)[C@H](CCCNC(=N)NC)N=[N+]=[N-])C(=O)N[C@@H](CC(C)C)C(=O)O` [ABS16, X-Arg-Pro-Tyr-isoleu-Leu] here?
A: 0.3 ± 0.05 nM

Q: For `CCNC(=N)NCCC[C@H](N=[N+]=[N-])C(=O)N[C@@H](CCCNC(=N)N)C(=O)N1CCC[C@H]1C(=O)N[C@@H](Cc1ccc(O)cc1)C(=O)N[C@H](C(=O)N[C@@H](CC(C)C)C(=O)O)[C@@H](C)CC` [ABS17, X-Arg-Pro-Tyr-isoleu-Leu], which EC50 (NTR-1) is on record?
A: 0.25 ± 0.07 nM

Q: What does the source list for `CC(C)C[C@H](NC(=O)[C@@H](NC(=O)[C@H](Cc1ccc(O)cc1)NC(=O)[C@@H]1CCCN1C(=O)[C@H](CCCNC(=N)N)NC(=O)[C@@H](C)CCCCCN)C(C)(C)C)C(=O)O` [ABS201 HCl] (X1-RPY[Tle]L-OH)?
A: clinical observation 2 hour post-dosing ([3]; 50 mg/kg IV): all animals appeared grossly normal although marked hypothermia was present; clinical observation 24 hour post-dosing ([3]; 50 mg/kg IV): all animals appeared grossly normal; hypothermia was absent; acute behaviour during intravenous dosing ([3]; 50 mg/kg IV, slow push via tail vein): noticeably sedate; clinical observation after oral dosing ([3]; 250 mg/kg PO): appeared grossly normal at all time points

Q: Which results are given for `CC(C)C[C@H](NC(=O)[C@@H](NC(=O)[C@H](Cc1ccc(O)cc1)NC(=O)[C@@H]1CCCN1C(=O)[C@H](CCCNC(=N)N)NC(=O)[C@@H](C)CCC[N+](C)(C)C)C(C)(C)C)C(=O)O` [ABS-212.2HCL] (X2-RPY[Tle]L-OH)?
A: clearance as % of rat hepatic blood flow (3.31 L/hr/kg) ([4]; IV bolus 1 mg/kg): 32.33%; clearance as % of rat hepatic blood flow (3.31 L/hr/kg) ([4]; IV bolus 5 mg/kg): 12.08%; clearance as % of rat hepatic blood flow (3.31 L/hr/kg) ([4]; IV bolus […]): 12.08%; Vd ([4]; Sprague-Dawley, rat, plasma, IV 1 mg/kg): 0.43 ± 0.15 L/kg; Vd ([4]; Sprague-Dawley, rat, plasma, IV 2.5 mg/kg): 0.15 ± 0.01 L/kg; Vd ([4]; Sprague-Dawley, rat, plasma, IV 5 mg/kg): 0.16 ± 0.06 L/kg; half-life [4, 7]: 16.8 ± 4.8 min; clearance [4, 7]: 1.07 L/h/kg; half-life [4, 8]: 16.8 ± 6.6 min; clearance [4, 8]: 0.4 L/h/kg; half-life [4, 9]: 17.4 ± 7.8 min; clearance [4, 9]: 0.4 L/h/kg; AUC(0-inf) [4, 10]: 0.0531 ± 0.0396 µg·h/mL; Cmax [4, 10]: 0.0271 ± 0.0116 µg/mL; Tmax [4, 10]: 8.4 ± 3 min; bioavailability ([4]; Sprague-Dawley, rat, plasma, oral 50 mg/kg, 1 mg/kg group as IV dose data): 0.11 ± 0.08%; half-life [4, 10]: 85.2 ± 52.2 min

Q: Which “duration of activity of morphine” value (Formalin assay) does the source give for `CN1CC[C@]23c4c5ccc(O)c4O[C@H]2[C@@H](O)C=C[C@H]3[C@H]1C5` [Morphine, reference compound] here?
A: loses activity after 30 minutes

Q: What about the “MPE (0 min)” value (Tail flick assay) of the same compound?
A: 0.03 +/− 0.05

Q: What about the “MPE (30 min)” value (Tail flick assay) of the same compound?
A: 63.7 +/− 41.9

Q: And the “MPE (60 min)” value (Tail flick assay)?
A: 67.5 +/− 25.8

Q: With `CC[C@H](C)[C@H](NC(=O)[C@H](Cc1ccc(O)cc1)NC(=O)[C@@H]1CCCN1C(=O)[C@H](CCCNC(=N)N)NC(=O)[C@@H](N)CCCNC(=N)N)C(=O)N[C@@H](CC(C)C)C(=O)O` [NT(8-13), NH2-Arg-Arg-Pro-Tyr-Ile-Leu-COOH] as the compound, how does the “Hyperlocomotion Inhibition (active routes)” value [5] read?
A: CNS administration

Q: And the “Inhibits locomotor activity (active routes)” value [5]?
A: CNS administration

Q: And the Catalepsy [6]?
A: No

Q: And the half-life (in vitro)?
A: 5 min

Q: Which results are given for Arg-Arg-Pro-Tyr-t-Leu-Leu [ABS213]?
A: Tmax (I.P.) of %MPE (NTR-2 [1]): 30; MPE (I.P.) (NTR-2 [1]; 10 mg/kg): 48%

Q: What does the source list for Arg-Arg-Pro-Tyr-t-Leu-Leu [ABS237]?
A: Tmax (I.P.) of %MPE (NTR-2 [1]): 30; MPE (I.P.) (NTR-2 [1]; 10 mg/kg): 50%

Q: Which “Tmax (I.P.) of %MPE” value (NTR-2 [1]) does the source give for Boc-Arg-Pro-Tyr-t-Leu-Leu [ABS700] here?
A: 90

Q: What about the “MPE (I.P.)” value (NTR-2 [1]) of the same compound?
A: 51%

Q: Which “Tmax (I.P.) of %MPE” value (NTR-2 [1]; 10 mg/kg) does the source give for Lys-Arg-Pro-Tyr-t-Leu-Leu [ABS205] here?
A: 15-30

Q: And the “asterisk at peptide name: significant activity in the hotplate assay” value (NTR-2 [1])?
A: ABS205*

Q: What about the “MPE (I.P.)” value (NTR-2 [1]; 10 mg/kg) of the same compound?
A: 86%

Q: And the “MPE (oral)” value (NTR-2 [1]; hotplate)?
A: 66%

Q: And the “Tmax (Oral) of %MPE” value (NTR-2 [1])?
A: 30

Q: Which “Tmax (I.P.) of %MPE” value (NTR-2 [1]; 10 mg/kg) does the source give for Lys-Arg-Pro-Tyr-t-Leu-Leu [ABS229] here?
A: 60

Q: What about the “MPE (I.P.)” value (NTR-2 [1]; 10 mg/kg) of the same compound?
A: 48%

Q: Which “Tmax (I.P.) of %MPE” value (NTR-2 [1]; 10 mg/kg) does the source give for Orn-Arg-Pro-Tyr-t-Leu-Leu [ABS209] here?
A: 60

Q: And the “MPE (I.P.)” value (NTR-2 [1]; 10 mg/kg)?
A: 89%

Q: What does the source list for Orn-Arg-Pro-Tyr-t-Leu-Leu [ABS233]?
A: Tmax (I.P.) of %MPE (NTR-2 [1]; 10 mg/kg): 45; MPE (I.P.) (NTR-2 [1]; 10 mg/kg): 51%

Q: Which EC50 (NTR-1; competitive binding, Table 12, read-out: NTR-1) does the source give for X-Arg-Pro-Tyr-isoleu-Leu [ABS19] here?
A: 1.2 ± 0.7 nM

Q: Which “Tmax (I.P.) of %MPE” value (NTR-2 [1]) does the source give for hLys-Arg-Pro-Tyr-t-Leu-Leu [ABS225] here?
A: 15-45

Q: And the “asterisk at peptide name: significant activity in the hotplate assay” value (NTR-2 [1])?
A: ABS225*

Q: What about the “MPE (I.P.)” value (NTR-2 [1]) of the same compound?
A: 100%

Q: What about the “MPE (oral)” value (NTR-2 [1]; hotplate) of the same compound?
A: 38%

Q: What about the “Tmax (Oral) of %MPE” value (NTR-2 [1]) of the same compound?
A: 30
